According to patent publication US9957267B2, “Somatostatin modulators and uses thereof” (Crinetics Pharmaceuticals, Inc., priority 2015, dated 2018):

How the values were obtained:
Type in all cases: cell-based
[1] = biological target: T1, human somatostatin receptor subtype 2a (Homo sapiens, UniProt P30874); assay: cAMP assay for SSTR2a agonists (HTRF cAMP kit, NKH-477 stimulated); conditions: CHO cells stably expressing human SSTR2a, 1.6 μM NKH-477
T1 construct: expressed in transfected cells
Description: Chinese hamster ovary (CHO) cells stably expressing one of the six human or rodent somatostatin receptor subtypes are grown to 85-100% confluence on standard tissue culture dishes in F12-Ham's growth media (Hyclone) with following additives: 10% donor calf serum (Hyclone), 200 U/mL penicillin (Hyclone), 200 μg/mL streptomycin (Hyclone), 20 mM HEPES (Hyclone), 200 μg/mL hygromycin Hyclone.
General overview: All SSTR subtypes are Gi coupled G-protein coupled receptors (GPCRs) that lead to decreases in intracellular cyclic AMP (cAMP) when activated by an agonist. Therefore, measurement of intracellular cAMP levels can be used to assess whether compounds of the invention are agonists of SSTR subtypes (John Kelly, Troy Stevens, W. Joseph Thompson, and Roland Seifert, Current Protocols in Pharmacology, 2005, 2.2.1-2.2). One example of an intracellular cAMP assay is described below.
Four days prior to the assay, 5000 Chinese hamster ovary (CHO) cells stably expressing the human somatostatin receptor subtype 2a are plated in each well of a 96-well tissue culture plate (Nest Biotech Cell, flat bottom with low evaporation tissue culture treated; Polystyrene; Non-Pyrogenic) in F12-Ham's media (100 μL/well) supplemented with 200 μg/mL of hygromycin. Incubate at 37 C, 5% CO2, 95% humidity for four days. The cells should reach full confluence. On the day of the assay, various dilutions of the compounds of the invention are prepared in assay buffer (HRTF cAMP kit, Cisbio) in the presence of 1.6 μM NKH-477 (a water-soluble forskolin derivative) and 50 μL of the dilutions are added to the cultured cells and incubated for 20 minutes at 37° C. […] 50 μL of lysis buffer (HRTF cAMP kit, Cisbio) is added to each well and incubated at room temperature for 30 minutes, after which 150 μL assay buffer is added to each well. In a 384-well plate (Grenier, 784-080), 10 μL of assay mixture is added to 10 μL of developing mixture, containing cAMP detection and visualization antibodies are added and the assay is allowed incubate for 1-24 hours at room temperature. The intracellular cAMP concentrations are then measured using a commercially available detection kit (for example, the cAMP HTRF kit, Cisbio). The measured intracellular cAMP concentrations are plotted vs. the concentration of the compounds of the invention and the EC50 of the compounds are calculated using standard methods.

[2] = biological target: T2, SSTR1 (Homo sapiens, UniProt P30872); assay: cAMP functional agonist assay, CHO cells expressing SSTR1; conditions: CHO cells stably expressing SSTR1, cAMP; read-out: SSTR1 EC50
T2 construct: expressed in transfected cells
T2 sequence (P30872 whole entry): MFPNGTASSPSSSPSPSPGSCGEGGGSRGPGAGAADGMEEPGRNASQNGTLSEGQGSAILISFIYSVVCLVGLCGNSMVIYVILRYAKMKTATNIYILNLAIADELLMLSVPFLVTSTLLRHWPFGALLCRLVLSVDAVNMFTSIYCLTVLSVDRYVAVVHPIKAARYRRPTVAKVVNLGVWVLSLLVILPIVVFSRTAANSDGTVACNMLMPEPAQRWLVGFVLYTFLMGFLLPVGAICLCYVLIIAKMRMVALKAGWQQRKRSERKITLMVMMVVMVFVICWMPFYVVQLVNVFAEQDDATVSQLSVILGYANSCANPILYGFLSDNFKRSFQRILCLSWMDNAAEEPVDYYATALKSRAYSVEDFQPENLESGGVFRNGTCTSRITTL
Outline: (§1)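 CHO cells stably expressing the human or rodent somatostatin receptor subtype. Agonism measured as decrease in intracellular cAMP via Gi coupling.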

[3] = biological target: SSTR3 (UniProt P32745); assay: cAMP functional agonist assay, CHO cells expressing SSTR3; conditions: CHO cells stably expressing SSTR3, cAMP
Sequence of SSTR3 (P32745 whole entry): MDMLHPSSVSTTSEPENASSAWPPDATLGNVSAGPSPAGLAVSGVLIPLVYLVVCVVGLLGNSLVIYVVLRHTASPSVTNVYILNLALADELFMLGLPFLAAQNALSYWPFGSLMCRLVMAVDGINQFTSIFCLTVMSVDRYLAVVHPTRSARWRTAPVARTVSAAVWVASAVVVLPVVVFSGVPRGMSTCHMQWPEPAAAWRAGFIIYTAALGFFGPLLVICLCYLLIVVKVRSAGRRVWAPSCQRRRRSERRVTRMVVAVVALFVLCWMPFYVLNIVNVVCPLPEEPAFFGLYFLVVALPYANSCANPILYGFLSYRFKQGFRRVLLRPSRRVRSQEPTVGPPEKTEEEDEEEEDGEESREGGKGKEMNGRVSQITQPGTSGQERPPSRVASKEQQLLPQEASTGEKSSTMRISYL
Outline: (§2)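 CHO cells stably expressing a single somatostatin receptor subtype, grown to 85–100% confluence in F12-Ham's with 10% donor calf serum and hygromycin. Agonism assessed as a decrease in intracellular cAMP via Gi coupling.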

[4] = biological target: T3, SSTR4 (Homo sapiens, UniProt P31391); assay: cAMP functional agonist assay, CHO cells expressing SSTR4; conditions: CHO cells stably expressing SSTR4, cAMP; read-out: SSTR4 EC50
T3 construct: expressed in transfected cells
T3 sequence (P31391 whole entry): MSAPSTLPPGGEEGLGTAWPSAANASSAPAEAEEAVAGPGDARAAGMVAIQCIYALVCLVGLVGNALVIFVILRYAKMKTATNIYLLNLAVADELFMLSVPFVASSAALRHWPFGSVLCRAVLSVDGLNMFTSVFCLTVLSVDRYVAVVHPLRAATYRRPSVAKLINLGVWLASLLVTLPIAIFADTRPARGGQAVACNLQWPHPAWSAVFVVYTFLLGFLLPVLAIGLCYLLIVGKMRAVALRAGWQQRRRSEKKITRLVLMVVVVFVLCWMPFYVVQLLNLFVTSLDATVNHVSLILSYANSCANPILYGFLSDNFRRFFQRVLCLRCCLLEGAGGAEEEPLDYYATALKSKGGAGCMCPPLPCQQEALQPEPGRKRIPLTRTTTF
Outline: as §1

[5] = biological target: T4, SSTR5 (Homo sapiens, UniProt P35346); assay: cAMP functional agonist assay, CHO cells expressing SSTR5; conditions: CHO cells stably expressing SSTR5, cAMP
T4 construct: expressed in transfected cells
T4 sequence (P35346 whole entry): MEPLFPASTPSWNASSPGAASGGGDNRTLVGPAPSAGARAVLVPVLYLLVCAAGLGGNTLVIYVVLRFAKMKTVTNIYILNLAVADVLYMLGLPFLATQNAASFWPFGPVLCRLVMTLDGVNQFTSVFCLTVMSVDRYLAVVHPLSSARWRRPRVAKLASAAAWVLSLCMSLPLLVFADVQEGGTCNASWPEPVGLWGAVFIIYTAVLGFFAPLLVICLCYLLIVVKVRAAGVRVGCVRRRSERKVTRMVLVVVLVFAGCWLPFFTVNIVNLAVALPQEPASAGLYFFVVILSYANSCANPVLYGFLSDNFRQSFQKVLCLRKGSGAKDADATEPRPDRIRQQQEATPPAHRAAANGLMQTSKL
Outline: as §2

T1 sequence (P30874 whole entry): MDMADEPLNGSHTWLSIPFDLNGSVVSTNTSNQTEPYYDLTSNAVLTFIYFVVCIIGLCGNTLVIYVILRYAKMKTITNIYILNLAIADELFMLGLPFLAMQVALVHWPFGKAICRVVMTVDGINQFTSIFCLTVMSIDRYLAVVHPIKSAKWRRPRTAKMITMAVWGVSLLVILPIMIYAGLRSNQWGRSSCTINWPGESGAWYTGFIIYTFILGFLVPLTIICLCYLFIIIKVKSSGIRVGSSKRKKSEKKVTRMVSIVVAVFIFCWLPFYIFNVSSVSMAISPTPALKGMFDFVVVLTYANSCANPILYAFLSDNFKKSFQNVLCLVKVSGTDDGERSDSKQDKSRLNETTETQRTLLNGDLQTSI

| EC50 [1] | EC50 [2] | EC50 [3] | EC50 [4] | EC50 [5] | Compound |
| --- | --- | --- | --- | --- | --- |
| 0.1 to 10 µM | > 10 µM | > 10 µM | 0.1 to 10 µM | > 10 µM | CCOC(=O)CNCCN(CC)Cc1c(-c2cc(C)cc(C)c2)cnc2ncn(-c3cccc(O)c3)c(=O)c12 [Compound A-68] |
| < 0.1 µM | 0.1 to 10 µM | < 0.1 µM | < 0.1 µM | > 10 µM | Cc1cc(Cl)cc(-c2cnc3ncn(-c4cc(O)cc(Cl)c4)c(=O)c3c2CN(C)C[C@@H]2CCCN2)c1 [Compound A-49, 3-(3-chloro-5-hydroxyphenyl)-6-(3-chloro-5-methylphenyl)-5-({methyl[(2S)-pyrrolidin-2-ylmethyl]amino}methyl)-3H,4H-pyrido[2,3-d]pyrimidin-4-one] |
| < 0.1 µM | 0.1 to 10 µM | < 0.1 µM | < 0.1 µM | 0.1 to 10 µM | CC[C@H](N)CN(C)Cc1c(-c2cc(C)cc(Cl)c2)cnc2ncn(-c3cc(O)cc(C(F)(F)F)c3)c(=O)c12 [Compound A-65, 5-({[(2S)-2-aminobutyl](methyl)amino}methyl)-6-(3-chloro-5-methylphenyl)-3-[3-hydroxy-5-(trifluoromethyl)phenyl]-3H,4H-pyrido[2,3-d]pyrimidin-4-one] |
| < 0.1 µM | > 10 µM | 0.1 to 10 µM | < 0.1 µM | 0.1 to 10 µM | Cc1cc(C)cc(-c2cnc3nc(C)n(-c4cc(O)cc(F)c4)c(=O)c3c2CN(C)C[C@@H]2CCCN2)c1 [Compound A-55, 6-(3,5-dimethylphenyl)-3-(3-fluoro-5-hydroxyphenyl)-2-methyl-5-({methyl[(2S)-pyrrolidin-2-ylmethyl]amino}methyl)-3H,4H-pyrido[2,3-d]pyrimidin-4-one] |
| < 0.1 µM | 0.1 to 10 µM | 0.1 to 10 µM | < 0.1 µM | 0.1 to 10 µM | Cc1cc(Cl)cc(-c2cnc3nc(C(C)C)n(-c4cccc(O)c4)c(=O)c3c2CN(C)C[C@@H]2CCCN2)c1 [Compound A-58, 6-(3-chloro-5-methylphenyl)-3-(3-hydroxyphenyl)-5-({methyl[(2S)-pyrrolidin-2-ylmethyl]amino}methyl)-2-(propan-2-yl)-3H,4H-pyrido[2,3-d]pyrimidin-4-one] |
| < 0.1 µM | > 10 µM | 0.1 to 10 µM | < 0.1 µM | > 10 µM | CN(Cc1c(-c2cccc(CO)c2)cnc2ncn(-c3cccc(O)c3)c(=O)c12)C[C@@H]1CCCN1 [Compound A-34, 6-[3-(hydroxymethyl)phenyl]-3-(3-hydroxyphenyl)-5-({methyl[(2S)-pyrrolidin-2-ylmethyl]amino}methyl)-3H,4H-pyrido[2,3-d]pyrimidin-4-one] |
| < 0.1 µM | 0.1 to 10 µM | < 0.1 µM | < 0.1 µM | > 10 µM | Cc1cc(Cl)cc(-c2cnc3ncn(-c4cc(O)ccc4F)c(=O)c3c2CN(C)C[C@@H]2CCCN2)c1 [Compound A-54, 6-(3-chloro-5-methylphenyl)-3-(2-fluoro-5-hydroxyphenyl)-5-({methyl[(2S)-pyrrolidin-2-ylmethyl]amino}methyl)-3H,4H-pyrido[2,3-d]pyrimidin-4-one] |
| < 0.1 µM | 0.1 to 10 µM | 0.1 to 10 µM | < 0.1 µM | > 10 µM | Cc1cc(Cl)cc(-c2cnc3ncn(-c4cc(F)cc(C(N)=O)c4)c(=O)c3c2CN(C)C[C@@H]2CCCN2)c1 [Compound A-50, 3-[6-(3-chloro-5-methylphenyl)-5-({methyl[(2S)-pyrrolidin-2-ylmethyl]amino}methyl)-4-oxo-3H,4H-pyrido[2,3-d]pyrimidin-3-yl]-5-fluorobenzamide] |
| < 0.1 µM | 0.1 to 10 µM | 0.1 to 10 µM | < 0.1 µM | 0.1 to 10 µM | CCCN(CCN)Cc1c(-c2cc(C)cc(C)c2)cnc2ncn(-c3cccc(O)c3)c(=O)c12 [Compound A-4, 5-{[(2-aminoethyl)(propyl)amino]methyl}-6-(3,5-dimethylphenyl)-3-(3-hydroxyphenyl)-3H,4H-pyrido[2,3-d]pyrimidin-4-one] |
| < 0.1 µM | 0.1 to 10 µM | < 0.1 µM | < 0.1 µM | > 10 µM | 5-({[(2S)-2-aminobutyl](methyl)amino}methyl)-6-(3,5-dimethylphenyl)-3-[3-hydroxy-5-(trifluoromethyl)phenyl]-3H,4H-pyrido[2,3-d]pyrimidin-4-one [Compound A-63] |
| < 0.1 µM | 0.1 to 10 µM | < 0.1 µM | < 0.1 µM | 0.1 to 10 µM | Cc1cc(C)cc(-c2cnc3ncn(-c4cc(O)cc(F)c4)c(=O)c3c2CN(C)C[C@@H]2CCCCN2)c1 [Compound A-27, 6-(3,5-dimethylphenyl)-3-(3-fluoro-5-hydroxyphenyl)-5-({methyl[(2S)-piperidin-2-ylmethyl]amino}methyl)-3H,4H-pyrido[2,3-d]pyrimidin-4-one] |
| < 0.1 µM | > 10 µM | < 0.1 µM | < 0.1 µM | 0.1 to 10 µM | Cc1cc(Cl)cc(-c2cnc3nc(C)n(-c4cc(O)cc(F)c4)c(=O)c3c2CN(C)C[C@@H]2CCCN2)c1 [Compound A-59, 6-(3-chloro-5-methylphenyl)-3-(3-fluoro-5-hydroxyphenyl)-2-methyl-5-({methyl[(2S)-pyrrolidin-2-ylmethyl]amino}methyl)-3H,4H-pyrido[2,3-d]pyrimidin-4-one] |
| < 0.1 µM | > 10 µM | < 0.1 µM | < 0.1 µM | > 10 µM | Cc1cc(Cl)cc(-c2cnc3ncn(-c4cc(F)cc(C(N)=O)c4)c(=O)c3c2CN(C)C[C@H]2CCCN2)c1 [Compound A-51, 3-[6-(3-chloro-5-methylphenyl)-5-({methyl[(2R)-pyrrolidin-2-ylmethyl]amino}methyl)-4-oxo-3H,4H-pyrido[2,3-d]pyrimidin-3-yl]-5-fluorobenzamide] |
| < 0.1 µM | 0.1 to 10 µM | < 0.1 µM | < 0.1 µM | > 10 µM | Cc1cc(Cl)cc(-c2cnc3ncn(-c4cc(O)cc(C(F)(F)F)c4)c(=O)c3c2CN(C)C[C@@H]2CCCN2)c1 [Compound A-48, 6-(3-chloro-5-methylphenyl)-3-[3-hydroxy-5-(trifluoromethyl)phenyl]-5-({methyl[(2S)-pyrrolidin-2-ylmethyl]amino}methyl)-3H,4H-pyrido[2,3-d]pyrimidin-4-one] |
| < 0.1 µM | 0.1 to 10 µM | < 0.1 µM | < 0.1 µM | – | Cc1cc(Cl)cc(-c2cnc3nc(C)n(-c4cc(F)cc(C#N)c4)c(=O)c3c2CN(C)C[C@@H]2CCCN2)c1 [Compound A-60, 3-[6-(3-chloro-5-methylphenyl)-2-methyl-5-({methyl[(2S)-pyrrolidin-2-ylmethyl]amino}methyl)-4-oxo-3H,4H-pyrido[2,3-d]pyrimidin-3-yl]-5-fluorobenzonitrile] |
| < 0.1 µM | > 10 µM | 0.1 to 10 µM | < 0.1 µM | – | CCN(CCN)Cc1c(-c2cc(C)cc(Cl)c2)cnc2ncn(-c3cc(O)cc(F)c3)c(=O)c12 [Compound A-3, 5-(((2-aminoethyl)(ethyl)amino)methyl)-6-(3-chloro-5-methylphenyl)-3-(3-fluoro-5-hydroxyphenyl)pyrido[2,3-d]pyrimidin-4(3H)-one] |
| < 0.1 µM | 0.1 to 10 µM | < 0.1 µM | < 0.1 µM | – | Cc1cc(F)cc(-c2cnc3ncn(-c4cccc(O)c4)c(=O)c3c2CN(C)CC2CCCCN2)c1 (stereo not shown) [Compound A-25, 6-(3-fluoro-5-methylphenyl)-3-(3-hydroxyphenyl)-5-{[methyl(piperidin-2-ylmethyl)amino]methyl}-3H,4H-pyrido[2,3-d]pyrimidin-4-one] |
